{"source": "paper PMC8224453", "about": "“A New PqsR Inverse Agonist Potentiates Tobramycin Efficacy to Eradicate Pseudomonas aeruginosa Biofilms” (Advanced Science, 2021)", "tested_on": "P. aeruginosa NH57388A", "experiment": "Murine mucoid lung infection model, target engagement", "format": "in vivo, Pseudomonas aeruginosa", "experimental": "We, therefore, decided to make use of a murine sub‐chronic infection model with a mucoid infection phenotype specifically enabling to assess the on‐target activity of QSIs. […] Animals were immediately treated with QSI 4 co‐administered using methyl cellulose (dose = 5 mg kg^−1) or vehicle (control), followed by further treatments at 24 and 48 h post‐infection. The lungs were harvested at 72 h time point, homogenized and extracted using ethyl acetate. As a readout for target engagement, we quantified the signal molecule levels of HHQ, PQS, and HQNO as proximal biomarkers for the activity of the bacterial target. […] In addition, we measured bacterial burden in form of CFU count as a treatment endpoint (Section S6.3, Supporting Information). […] Moreover, CFU was reduced by four‐fold upon treatment with QSI 4 (see Table S11 in the Supporting Information). […] However, considering the impact of the host immune system on bacterial clearance and the action of some PqsR‐controlled virulence factors toward immune‐system evasion (biofilm formation, pyocyanin production, elastase LasB expression), an indirect effect on the bacterial load in the lungs is plausible. However, it has to be stated that this effect is only minor compared to typical 2‐ to 4‐log unit reductions achieved by early antibiotic treatment.^[ ^31 ^]\n6.3. Design of in vivo Target Engagement Study\nGeneral. Mouse experiments were approved by the Landesamt für Soziales, Gesundheit und Verbraucherschutz of the State of Saarland in accordance with the national guidelines for animal treatment on August, 17th, 2017 (22/2017). The IVC unit was located within a biosafety level 2 laboratory and mice were allowed to acclimatize to their environment for at least seven days prior to the experiment. Throughout the experiment, the mice had access to water and food ad libitum.\nBackground studies were performed in order to generate typical mean and standard deviation values for biomarkers of the control group. Sample size was calculated using BiAS.\n(Software Version 11.08) from these values with alpha = 0.05 and P = 0.8 for biomarker reduction of 80% resulting in a sample size of ten mice or higher for a two-sample t-test.\nPrimary study. Ten-week old female C57BL/6N mice were housed in an individually ventilated-cage unit with ten mice per cage and twenty mice in total. One group (from one cage) was treated with compound 4, while the other group received a sham treatment with vehicle. Mice were not randomized, and no blinding was applied.\nFor the infection, each mouse was anesthetized intraperitoneally with 2.025 mg of ketaminhydrochloride (Ursotamin, Serumwerk Bernburg, Germany) and 0.12 mg of xylazinhydrochloride (Xylazin, WDF, Serumwerk Bernburg). Lidocainhydrochloride (Xylocain; Aspen Pharma, Ireland) was used for local anesthesia of the epiglottis before endotracheal intubation with a flexible cannula and intra-tracheal application of the inoculum […]\nApplication of inoculum (start of infection, 0 h) using 20 µL viable P. aeruginosa NH57388A culture supplemented with sodium alginate (22 mg/mL, Sigma). These were mixed with 20 µL of either compound 4 (5 mg/kg BW suspended in 0.1% methylcellulose) or vehicle (0.1% methylcellulose) to conduct the first treatment simultaneously to infection via intra-tracheal application assisted by endotracheal intubation using a flexible cannula. Bacterial load was determined to be 5∙10^7 CFU per mouse by plating serial dilutions on LB-agar plates.\nSubsequent treatments were performed at 24 and 48 h post infection with 20 µL of compound 4 (5 mg/kg BW suspended in 0.5% methylcellulose, 0.2 vol-% Tween-80) or vehicle (0.5% methylcellulose, 0.2 vol-% Tween 80) were administered intra-tracheally following the same procedure as the infection. 72 h post infection mice were euthanized, lungs were removed aseptically and homogenized in 500 µL sterile phosphate buffered saline over the course of […]\n72 h. Again, bacterial load was determined by plating serial dilutions on LB-agar plates. The […]", "key": {"[1]": {"details": "treated group, n = 7, 72 h, below LLOQ"}}}
{"smiles": "FC(F)(F)c1cc(NCc2cn(-c3ccc(Oc4ccccc4)cc3)nn2)ccn1", "note": "[Compound 4]", "values": [{"measurement": "reduction of CFU / bacterial load upon treatment", "setting": "mice, 5 mg kg^−1, 72 h", "value": "four‐fold"}, {"measurement": "auto‐inducer levels (HHQ, PQS, HQNO) in infected lungs", "setting": "mice, 5 mg kg^−1, 72 h, p < 0.05", "value": "reduced significantly"}, {"measurement": "CFU/mouse Mean", "setting": "treated group, n = 7, 72 h", "value": 173600, "unit": "CFU/mouse"}, {"measurement": "CFU/mouse Median", "setting": "treated group, n = 7, 72 h", "value": 147500, "unit": "CFU/mouse"}, {"measurement": "HHQ Mean", "setting": "treated group, n = 7, 72 h", "value": 1.7, "unit": "pmol"}, {"measurement": "HHQ Median", "setting": "treated group, n = 7, 72 h", "value": 0.9, "unit": "pmol"}, {"measurement": "HQNO Mean", "setting": "treated group, n = 7, 72 h", "value": 5.2, "unit": "pmol"}, {"measurement": "HQNO Median", "setting": "treated group, n = 7, 72 h", "value": 2.3, "unit": "pmol"}, {"measurement": "PQS Mean", "setting": "[1]", "value": 0.3, "unit": "pmol"}, {"measurement": "PQS Median", "setting": "[1]", "value": 0.2, "unit": "pmol"}, {"measurement": "Reduction through treatment, CFU/mouse", "setting": "treated vs untreated means", "value": 77.3, "unit": "%"}, {"measurement": "Reduction through treatment, HHQ", "setting": "treated vs untreated means", "value": 99.3, "unit": "%"}, {"measurement": "Reduction through treatment, HQNO", "setting": "treated vs untreated means", "value": 98.3, "unit": "%"}, {"measurement": "Reduction through treatment, PQS", "setting": "treated vs untreated means", "value": 99.1, "unit": "%"}]}
